From the supplement of paper PMC11451515

Assays:
Conditions in all cases: 48 h
[1] = tested on: NOMO1; assay: cell viability relative to DMSO control; higher = less cytotoxic
Summary of the method: (§1)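 NOMO1 or SEM cells were plated at 500 cells/well and P12-Ichikawa cells at 1000 cells/well in 1536-well plates (5 μl), after each leukemia line had been adapted for at least four passages in each medium. Pin dosing delivered library compounds in DMSO at 11 threefold concentrations, 47 μM to 0.79 nM. CellTiter-Glo One luminescence was read after 48 h at 37°C. Viability is reported as a per-plate percentage of DMSO wells, with cell-free wells as background.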

[2] = tested on: P12-Ichikawa; assay: as above
Summary of the method: as §1

[3] = tested on: SEM cells; assay: as above
Summary of the method: as §1

[4] = tested on: NOMO1; assay: AUC of viability dose-response curve (% viability x log10 dose units); higher = less sensitive
Summary of the method: (§2)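 Leukemia cells adapted to each medium were seeded at 500 or 1000 cells/well in 1536-well plates and dosed with library compounds in DMSO at 11 threefold doses from 47 μM to 0.79 nM for 48 h at 37°C. CellTiter-Glo One luminescence was normalised per plate to DMSO and cell-free wells, then fitted with a four-parameter log-logistic model over log10 doses. Area under the curve was taken from this fit by the trapezoidal rule, with curves above full viability scaled and curves failing quality control removed.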

[5] = tested on: P12-Ichikawa; assay: as above
Summary of the method: as §2

[6] = tested on: SEM cells; assay: as above
Summary of the method: as §2

C[C@@H](Oc1ccc2[nH]nc(/C=C/c3cnn(CCO)c3)c2c1)c1c(Cl)cncc1Cl
cell viability [%]
Conditions	[1]	[2]	[3]
HPLM + 10% dialyzed FBS, 0.000781 µM	99.5	91.7	90.3
HPLM + 10% dialyzed FBS, 0.00234 µM	102	88.7	86.4
HPLM + 10% dialyzed FBS, 0.00702 µM	98.9	93.6	85.9
HPLM + 10% dialyzed FBS, 0.0211 µM	93.9	94.2	85.9
HPLM + 10% dialyzed FBS, 0.0632 µM	99.9	94.2	85.6
HPLM + 10% dialyzed FBS, 0.19 µM	89.7	86.2	58.6
HPLM + 10% dialyzed FBS, 0.569 µM	86	83.9	31.3
HPLM + 10% dialyzed FBS, 1.71 µM	86.4	88.3	37.2
HPLM + 10% dialyzed FBS, 5.12 µM	70.9	86.2	20
HPLM + 10% dialyzed FBS, 15.4 µM	38.4	12.2	14.8
HPLM + 10% dialyzed FBS, 46.1 µM	41.3	51.3	30.9
RPMI 5 mM glucose + 10% FBS, 0.000781 µM	94.6	85.9	118
RPMI 5 mM glucose + 10% FBS, 0.00234 µM	108	89.8	136
RPMI 5 mM glucose + 10% FBS, 0.00702 µM	89.2	89.4	103
RPMI 5 mM glucose + 10% FBS, 0.0211 µM	86	94.3	103
RPMI 5 mM glucose + 10% FBS, 0.0632 µM	80.9	100	108
RPMI 5 mM glucose + 10% FBS, 0.19 µM	83.6	89.5	75.5
RPMI 5 mM glucose + 10% FBS, 0.569 µM	89.3	93.9	32.7
RPMI 5 mM glucose + 10% FBS, 1.71 µM	76.3	89.7	42.8
RPMI 5 mM glucose + 10% FBS, 5.12 µM	74.2	75.9	15.6
RPMI 5 mM glucose + 10% FBS, 15.4 µM	40	19.3	13.8
RPMI 5 mM glucose + 10% FBS, 46.1 µM	33.9	38	21
RPMI 5 mM glucose + 10% dialyzed FBS, 0.000781 µM	82.9	78.3	82.4
RPMI 5 mM glucose + 10% dialyzed FBS, 0.00234 µM	92.3	92.2	84.6
RPMI 5 mM glucose + 10% dialyzed FBS, 0.00702 µM	89	83.8	82
RPMI 5 mM glucose + 10% dialyzed FBS, 0.0211 µM	85.2	90.3	73.5
RPMI 5 mM glucose + 10% dialyzed FBS, 0.0632 µM	92.8	94.6	80
RPMI 5 mM glucose + 10% dialyzed FBS, 0.19 µM	99.1	86.1	50.9
RPMI 5 mM glucose + 10% dialyzed FBS, 0.569 µM	87.4	76.7	17.5
RPMI 5 mM glucose + 10% dialyzed FBS, 1.71 µM	73.5	86.8	33.7
RPMI 5 mM glucose + 10% dialyzed FBS, 5.12 µM	80.9	88.6	12.4
RPMI 5 mM glucose + 10% dialyzed FBS, 15.4 µM	40.9	23.5	10.9
RPMI 5 mM glucose + 10% dialyzed FBS, 46.1 µM	34.9	41.6	20.9

AUC of viability dose-response curve
Conditions	HPLM + 10% dialyzed FBS	RPMI 5 mM glucose + 10% FBS	RPMI 5 mM glucose + 10% dialyzed FBS
[4]	401	379	381
[5]	386	385	374

CO[C@H]1O[C@@H]2O[C@@]3(C)CC[C@H]4[C@H](C)CC[C@@H]([C@H]1C)[C@@]24OO3
AUC of viability dose-response curve
Conditions	[4]	[5]	[6]
HPLM + 10% dialyzed FBS	436	433	429
RPMI 5 mM glucose + 10% FBS	433	430	456
RPMI 5 mM glucose + 10% dialyzed FBS	405	417	451

Cc1ccc(C(N)=O)cc1Nc1nccc(-c2cn(C(C)C)c3cnccc23)n1
cell viability [%], [3]
Conditions	HPLM + 10% dialyzed FBS	RPMI 5 mM glucose + 10% dialyzed FBS
0.000781 µM	99	109
0.00234 µM	118	128
0.00702 µM	113	124
0.0211 µM	111	113
0.0632 µM	100	113
0.19 µM	88	87.3
0.569 µM	75	64.1
1.71 µM	80	71
5.12 µM	61.4	52.5
15.4 µM	29	34.8
46.1 µM	16.7	12.7

AUC of viability dose-response curve
Conditions	HPLM + 10% dialyzed FBS	RPMI 5 mM glucose + 10% FBS	RPMI 5 mM glucose + 10% dialyzed FBS
[5]	463	459	451
[6]	356	342	326

C/C(=C\C(=O)Nc1ccccc1C(=O)O)c1ccc2ccccc2c1
AUC of viability dose-response curve
Conditions	HPLM + 10% dialyzed FBS	RPMI 5 mM glucose + 10% FBS	RPMI 5 mM glucose + 10% dialyzed FBS
[5]	461	461	456
[6]	435	447	463

CCN(CC)Cc1ccc2cc(COC(=O)Nc3ccc(C(=O)NO)cc3)ccc2c1
[3], HPLM + 10% dialyzed FBS
Conditions	cell viability [%]
0.000781 µM	108
0.00234 µM	121
0.00702 µM	127
0.0211 µM	138
0.0632 µM	129
0.19 µM	138
0.569 µM	118
1.71 µM	59.1
5.12 µM	3.07
15.4 µM	2.21
46.1 µM	3.97

AUC of viability dose-response curve
Conditions	[4]	[5]	[6]
HPLM + 10% dialyzed FBS	362	349	333
RPMI 5 mM glucose + 10% FBS	372	347	345
RPMI 5 mM glucose + 10% dialyzed FBS	370	352	339

Cc1ccccc1C(C(=O)NC1CCCC1)N(C(=O)Cn1cnc2ccccc21)c1cccc(F)c1 (centres undefined)
cell viability [%]
Conditions	HPLM + 10% dialyzed FBS	RPMI 5 mM glucose + 10% FBS	RPMI 5 mM glucose + 10% dialyzed FBS
[1], 0.000781 µM	–	118	–
[1], 0.00234 µM	–	114	–
[1], 0.00702 µM	–	127	–
[1], 0.0211 µM	–	105	–
[1], 0.0632 µM	–	125	–
[1], 0.19 µM	–	107	–
[1], 0.569 µM	–	113	–
[1], 1.71 µM	–	121	–
[1], 5.12 µM	–	108	–
[1], 15.4 µM	–	110	–
[1], 46.1 µM	–	99.8	–
[3], 0.000781 µM	133	120	119
[3], 0.00234 µM	114	126	107
[3], 0.00702 µM	119	121	128
[3], 0.0211 µM	113	128	125
[3], 0.0632 µM	112	127	137
[3], 0.19 µM	113	122	119
[3], 0.569 µM	124	126	120
[3], 1.71 µM	119	122	113
[3], 5.12 µM	108	122	126
[3], 15.4 µM	111	112	118
[3], 46.1 µM	80.9	83	84.9

AUC of viability dose-response curve
Conditions	HPLM + 10% dialyzed FBS	RPMI 5 mM glucose + 10% FBS	RPMI 5 mM glucose + 10% dialyzed FBS
[5]	446	439	446
[6]	429	464	469

C[C@H]1CN(C[C@@H](C)N1)C2=C(F)C3=C(C(=C2F)N)C(=O)\C(=C/N3C4CC4)C(O)=O
cell viability [%], [3]
Conditions	HPLM + 10% dialyzed FBS	RPMI 5 mM glucose + 10% dialyzed FBS
0.000781 µM	108	119
0.00234 µM	112	122
0.00702 µM	130	134
0.0211 µM	122	114
0.0632 µM	109	109
0.19 µM	115	124
0.569 µM	107	118
1.71 µM	91.4	95.3
5.12 µM	95.9	96.3
15.4 µM	86.4	88.7
46.1 µM	60.1	56.9

AUC of viability dose-response curve
Conditions	[4]	[5]	[6]
HPLM + 10% dialyzed FBS	422	448	424
RPMI 5 mM glucose + 10% FBS	466	441	423
RPMI 5 mM glucose + 10% dialyzed FBS	446	430	425

O=C1Cc2cc(CCN3CCN(c4nsc5ccccc45)CC3)c(Cl)cc2N1
AUC of viability dose-response curve
Conditions	[4]	[5]	[6]
HPLM + 10% dialyzed FBS	444	459	380
RPMI 5 mM glucose + 10% FBS	460	469	366
RPMI 5 mM glucose + 10% dialyzed FBS	457	464	362

C\C1=N\N(C(=O)C1)C2=CC=CC=C2
cell viability [%], [3]
Conditions	HPLM + 10% dialyzed FBS	RPMI 5 mM glucose + 10% FBS
0.000781 µM	102	113
0.00234 µM	104	121
0.00702 µM	121	129
0.0211 µM	136	119
0.0632 µM	130	130
0.19 µM	121	117
0.569 µM	112	121
1.71 µM	130	123
5.12 µM	121	132
15.4 µM	118	130
46.1 µM	111	117

AUC of viability dose-response curve
Conditions	[4]	[5]	[6]
HPLM + 10% dialyzed FBS	467	471	465
RPMI 5 mM glucose + 10% FBS	467	458	465
RPMI 5 mM glucose + 10% dialyzed FBS	462	473	473
